Data: US12534583B2, “Compositions and polymer films” (Fujifilm Manufacturing Europe B.V., priority 2020, dated 2026)
Counter-ions that a name gives are not always drawn.

Assay: Solubility in water determined visually or by UV-spectrometry
Conditions: 40° C. overnight, M = Li
Protocol: The solubility of the compounds of Formula (I) was determined visually or by UV-spectrometry. For each compound of Formula (I), three solutions were prepared: one solution at 30 wt %, one solution at 60 wt %, and one solution at 70 wt % containing a 1:1 molar ratio of the compound of Formula (I) with cross-linker Li-BVBSI. 500 ppm 40H-TEMPO was included in all three solutions to prevent premature polymerisation. The solutions were kept in a water bath of 40° C. overnight and centrifuged prior inspection. UV spectra were recorded in a Cary™ 100 UV-visible spectrophotometer from Agilent Technologies using a 1 mm path length quartz cuvette.

Structure (SMILES)	Solubility in water at 40° C.
C=Cc1ccc(S(=O)(=O)[O-])cc1.[Li+] [LiSS, Styrene sulphonate, lithium salt, reference compound]	40 wt %
C=Cc1ccc(S(=O)(=O)NS(N)(=O)=O)cc1 [MM-A, Benzenesulphonamide, 4-ethenyl-N-(aminosulphonyl)-, lithium salt]	>60 wt %
C=Cc1ccc(S(=O)(=O)NS(C)(=O)=O)cc1 [MM-M, Benzenesulphonamide, 4-ethenyl-N-(methylsulphonyl)-, lithium salt]	>60 wt %
C=Cc1ccc(S(=O)(=O)NS(=O)(=O)c2ccccc2)cc1 [MM-P, Benzenesulphonamide, 4-ethenyl-N-(phenylsulphonyl)-, lithium salt]	>60 wt %
C=Cc1ccc(S(=O)(=O)NS(=O)(=O)C(F)(F)F)cc1 [MM-Tf, Benzenesulphonamide, 4-ethenyl-N-[(trifluoromethyl)sulphonyl]-, lithium salt, reference compound]	>60 wt %
